In patent US8933065B2, “N-benzylamide substituted derivatives of 2-(acylamido)acetic acid and 2-(acylamido)propionic acids: potent neurological agents” (The University of North Carolina at Chapel Hill, priority 2008, dated 2015):
Read-outs that look alike come from different tables or passages of the source.

Key:
[1] = tested on: maximal electroshock (MES)-induced seizures; test: Maximal electroshock seizure (MES) test, mice (ip); assay type: in vivo; settings: mice, ip
Protocol: (§2) The maximal electroconvulsive shock (MES) test is regarded as a standard screen for anticonvulsant activity in terms of inhibition of seizure spread in generalized tonic-clonic seizures.
(§3) Groups of at least 8 male albino CF No. 1 mice or male albino Sprague-Dawley rats are treated with 10 mL/kg i.p. or 4 mL/kg p.o. of the test compound solution, respectively. The electrical stimulus in the MES test is 50 mA at 60 Hz for mice and 150 mA at 60 Hz for rats, both delivered for 0.2 sec. Abolition of the hind leg tonic extensor component of the seizure is used as the endpoint.

[2] = tested on: hippocampal kindled seizures; test: Hippocampal kindling test, rats; assay type: in vivo; settings: for Preliminary Hippocampal Kindling Test, After discharge duration, Drug / Preliminary Hippocampal Kindling Test, Seizure Score, Drug: rats; for Preliminary Hippocampal Kindling Test, Seizure Score, Drug: after drug (pre-drug score 4-5)
Protocol: The kindling model provides a tool to predict a test compound's activity in complex partial seizures.
Male albino Sprague-Dawley rats (n=8) are kindled to a Stage 5 behavioral seizure. They are treated with an appropriate i.p. dose of the test compound after a 1-week, stimulus-free period. The test compound is evaluated for its effect on kindled motor seizures (seizures scores of 4 and 5), limbic behavior seizures (seizure scores between 1 and 3) and after-discharge duration. After 15 min, each rat is stimulated every 30 min for 3-4 h. Following each stimulation, individual seizure scores and after-discharge duration are recorded. The group mean and standard error of the mean (SEM) are calculated for each parameter.

[3] = tested on: mechanical allodynia after partial sciatic nerve ligation; test: Partial sciatic nerve ligation model, rats (ip); assay type: in vivo; settings: dose 12, p < 0.05
[4] = tested on: maximal electroshock (MES)-induced seizures; test: Maximal electroshock seizure (MES) test, rat (po); assay type: in vivo; settings: for MES, ED50: rat, time (h) in brackets, Table 2
Protocol: as §2, §3

6 Hz seizures = test: 6 Hz seizure model, mice (ip); assay type: in vivo; settings: mice, ip; Table b607
[5] = tested on: neurologic toxicity (rotorod test); test: Neurologic toxicity, rotorod test, mice (ip); assay type: in vivo; settings: rotorod test, Table b607
Protocol: (§1) Tests are conducted in groups of at least 8 mice or rats to determine the intrinsic neurotoxicity (neuromuscular impairment) after administration of the test compound by the route of administration to be used in the pharmacology studies. Neurotoxicity is determined in male CF No 1 mice by the rotarod procedure. Inability of the mouse to maintain its equilibrium in 3 trials during 1 min on this rotating rod (6 rpm) is used as an indication of such impairment. In Sprague-Dawley rats, minimal motor impairment (MMI) is determined by overt evidence of ataxia, abnormal gait, and stance.

behavioral toxicity [6] = test: Toxicity (behavioral toxicity), rat (po); assay type: in vivo
Protocol: as §1

[7] = tested on: maximal electroshock (MES)-induced seizures; settings: mice, ip; Table 3, Ref 30, 16, 32; cited from earlier work
behavioral toxicity [8] = settings: rat, po; Table 3, Ref 16, 32; cited from earlier work
[9] = tested on: neurologic toxicity (rotorod test); settings: mice, ip, Table 3, Ref 30, 16, 32; cited from earlier work
[10] = tested on: maximal electroshock (MES)-induced seizures; settings: rat, po; Table 3, Ref 16, 32; cited from earlier work
[11] = time (h) in brackets, Table 2, footnotes not given

| Structure (SMILES) | Preliminary Hippocampal Kindling Test, After discharge duration, Drug [2] [s] | Preliminary Hippocampal Kindling Test, Seizure Score, Drug [2] | MES, ED50 [7] | MES, ED50 [1, 11] | MES, ED50 [4] | MES, ED50 [10] | also measured |
| --- | --- | --- | --- | --- | --- | --- | --- |
| COC[C@@H](NC(C)=O)C(=O)NCc1ccc(OCc2cccc(F)c2)cc1 [(R)-3, (R)-2-Acetamido-N-(4-(3-fluorobenzyloxy)benzyl)-3-methoxypropanamide] | 0 | 0 | – | – | – | – | ED50 ([1]; Mus musculus, time (h) in brackets, Table 2, footnotes not given): 13 mg/kg; ED50 ([2]; Rattus norvegicus, ip, read-out: Hippocampal Kindled Rats (ip) ED50 (inteval)): 12 mg/kg; fold attentaution of mechanical allodynia at 1 h [3]: 11.2 fold attentaution of mechanical |
| COC[C@@H](NC(C)=O)C(=O)NCc1ccc(Oc2cccc(F)c2)cc1 [(R)-12, (R)—N-4′-((3″-Fluoro)phenoxy)benzyl 2-N-Acetamido-3-methoxypropionamide] | – | – | – | – | – | – | ED50 ([4]; Rattus norvegicus, read-out: MES, ED50, rat, po): < 10 mg/kg; MES, ED50 ([1]; time (h) in brackets, (X′—Y′—Z′ group)): 5.5 [0.25] (3.2-6.3) milligrams per kilogram; 6 Hz, ED50 (6 Hz seizures): ~10 [0.5] milligrams per kilogram; Tox, TD50 [5]: 23 [0.25] (18-28) milligrams per kilogram; Tox, TD50 (behavioral toxicity [6]; behavioral toxicity, Table b607): >10 [0.25-4.0] milligrams per kilogram |
| CC(=O)N[C@@H](C)C(=O)NCc1ccccc1 [(S)-4, reference compound] | – | – | 8.0 milligrams per kilogram | – | – | – | MES, ED50 ([1]; 95% confidence intervals in parentheses, Table 1): 550 (460-740) mg/kg |
| CCC1(c2ccccc2)C(=O)NC(=O)NC1=O [Phenobarbital, reference compound] | – | – | – | 22 [1] | – | – | Tox, TD50 (behavioral toxicity [8]): 61 [0.5] milligrams per kilogram |
| O=C1NC(=O)C(c2ccccc2)(c2ccccc2)N1 [phenytoin, reference compound] | 51 | 3 | – | – | 30 [4] | 30 [4.0] milligrams per kilogram | Tox, TD50 [9]: 66 [2.0] milligrams per kilogram; Tox, TD50 (behavioral toxicity [6]; time (h) in brackets, Table 2): ^hNo ataxia observed up to 3000 mg/kg. |
| CCCC(CCC)C(=O)O [valproate] | – | – | 270 [0.25] milligrams per kilogram | 270 [0.25] | 490 [0.5] | 490 [0.5] milligrams per kilogram | – |
